In ChEMBL document CHEMBL1201862, “PubChem BioAssay data set” (2004):
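Five concentrations, 48 hours, 96-well plates. GI50 is the concentration that inhibits growth by half.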 Activity calls are given as the source filed them. Cut-off read from the data, not from the text of the source: active = GI50 up to about 1.1 µM and inactive = higher.

Tests used:
Assay in all cases: growth of human tumour cells (NCI), 48 h
RPMI-8226 = tested on: RPMI-8226
T47D = tested on: T47D
SN12C = tested on: SN12C
UACC-257 = tested on: UACC-257
BT-549 = tested on: BT-549
HCT-15 = tested on: HCT-15
SK-MEL-28 = tested on: SK-MEL-28
NCI-H460 = tested on: NCI-H460
CAKI-1 = tested on: CAKI-1
HCT-116 = tested on: HCT-116
Hs-578T = tested on: Hs-578T
MCF7 = tested on: MCF7
HOP-62 = tested on: HOP-62
MOLT-4 = tested on: MOLT-4
ACHN = tested on: ACHN
SF-539 = tested on: SF-539
HCC 2998 = tested on: HCC 2998
PC-3 = tested on: PC-3
HL-60 = tested on: HL-60
EKVX = tested on: EKVX

| SMILES | GI50 (RPMI-8226) | GI50 (T47D) | GI50 (SN12C) | GI50 (UACC-257) | GI50 (BT-549) | GI50 (HCT-15) | GI50 (SK-MEL-28) | GI50 (NCI-H460) | GI50 (CAKI-1) | GI50 (HCT-116) | GI50 (Hs-578T) | GI50 (MCF7) | GI50 (HOP-62) | GI50 (MOLT-4) | GI50 (ACHN) | GI50 (SF-539) | GI50 (HCC 2998) | GI50 (PC-3) | GI50 (HL-60) | GI50 (EKVX) |
| --- | --- | --- | --- | --- | --- | --- | --- | --- | --- | --- | --- | --- | --- | --- | --- | --- | --- | --- | --- | --- |
| COC(=O)c1cc2c(cc1CC(Cc1ccc3c(c1)CCCC3)C(=O)OC)CCCC2 (stereo unspecified) | 20 µM (inactive) | 39.8 µM (inactive) | > 100 µM (inactive) | 16.4 µM (inactive) | > 100 µM (inactive) | 35.7 µM | 86.1 µM (inactive) | 34 µM (inactive) | > 100 µM (inactive) | 36 µM (inactive) | 93.3 µM (inactive) | 40.1 µM (inactive) | > 100 µM (inactive) | 42.1 µM (inactive) | 49.9 µM (inactive) | 32.7 µM (inactive) | 20.8 µM (inactive) | 21.7 µM (inactive) | 7.45 µM (inactive) |  |
| NCCc1ccc2c(c1)C(=O)c1c(O)ccc(O)c1C2=O | 4.14 µM (inactive) | 3.37 µM (inactive) | 2.51 µM (inactive) | 15.2 µM (inactive) | 6.73 µM (inactive) | 4.51 µM |  | > 20.7 µM (inactive) | 4.84 µM (inactive) | 2.69 µM (inactive) | 5.98 µM (inactive) | 3.51 µM (inactive) | 3.6 µM (inactive) | 2.76 µM (inactive) | 4.46 µM (inactive) | 3.02 µM (inactive) | > 23.9 µM (inactive) | 3.33 µM (inactive) | 2.17 µM (inactive) | 2.45 µM (inactive) |
| O=C1NC(=O)C(CCC(=O)c2cccc3ccccc23)C(=O)N1 | 48.8 µM (inactive) | > 100 µM (inactive) | > 100 µM (inactive) | > 100 µM (inactive) | > 100 µM (inactive) | > 100 µM | > 100 µM (inactive) | > 100 µM (inactive) | > 100 µM (inactive) | > 100 µM (inactive) | > 100 µM (inactive) | > 100 µM (inactive) |  | > 100 µM (inactive) | > 100 µM (inactive) | > 100 µM (inactive) | > 100 µM (inactive) | > 100 µM (inactive) | > 100 µM (inactive) |  |
| COc1nc2ncc([C@@H](O)[C@H](O)CO)nc2c(=O)[nH]1 | > 100 µM (inactive) | > 100 µM (inactive) | > 100 µM (inactive) | > 100 µM (inactive) | 99.1 µM (inactive) | > 100 µM | > 100 µM (inactive) | > 100 µM (inactive) | > 100 µM (inactive) | > 100 µM (inactive) | > 100 µM (inactive) | > 100 µM (inactive) | > 100 µM (inactive) | > 100 µM (inactive) | > 100 µM (inactive) | > 100 µM (inactive) |  | > 100 µM (inactive) | 63.2 µM (inactive) | > 100 µM (inactive) |
| CN(C)CCNC(=O)Cn1cc([N+](=O)[O-])c(=O)c2ccccc21 |  | > 100 µM (inactive) | > 100 µM (inactive) | > 100 µM (inactive) | > 100 µM (inactive) | > 100 µM | > 100 µM (inactive) | > 100 µM (inactive) | > 100 µM (inactive) | > 100 µM (inactive) | > 100 µM (inactive) | > 100 µM (inactive) | > 100 µM (inactive) | > 100 µM (inactive) | > 100 µM (inactive) | > 100 µM (inactive) | > 100 µM (inactive) | > 100 µM (inactive) | > 100 µM (inactive) |  |
| O=C1/C(=C\c2ccc(F)cc2)CCOc2c1ccc1ccccc21 | 3.3 µM (inactive) | 41.6 µM (inactive) | 35.3 µM (inactive) | 19.5 µM (inactive) | 25.6 µM (inactive) | 11.2 µM | 23.3 µM (inactive) | 25.1 µM (inactive) | 21.1 µM (inactive) | 3.49 µM (inactive) | 40.3 µM (inactive) | 10.4 µM (inactive) | 26.8 µM (inactive) | 7.67 µM (inactive) |  | 21.9 µM (inactive) | 3.48 µM (inactive) | 33 µM (inactive) | 14.9 µM (inactive) | 31.4 µM (inactive) |
| CCCC1CC(=O)NC(=O)C1C(=O)OC(C)(C)C (stereo unspecified) | > 100 µM (inactive) | > 100 µM (inactive) | > 100 µM (inactive) | > 100 µM (inactive) | > 100 µM (inactive) | > 100 µM | > 100 µM (inactive) | > 100 µM (inactive) | > 100 µM (inactive) | > 100 µM (inactive) | > 100 µM (inactive) | > 100 µM (inactive) | > 100 µM (inactive) | > 100 µM (inactive) | > 100 µM (inactive) |  | > 100 µM (inactive) | > 100 µM (inactive) | > 100 µM (inactive) | > 100 µM (inactive) |
| CC(=N\N)/C(C)=N/N=C(C)/C(C)=N/N | > 100 µM (inactive) | > 100 µM (inactive) | > 100 µM (inactive) | > 100 µM (inactive) | > 100 µM (inactive) | > 100 µM | > 100 µM (inactive) | > 100 µM (inactive) | > 100 µM (inactive) | > 100 µM (inactive) | > 100 µM (inactive) | > 100 µM (inactive) | > 100 µM (inactive) |  | > 100 µM (inactive) | > 100 µM (inactive) | > 100 µM (inactive) | > 100 µM (inactive) | > 100 µM (inactive) | > 100 µM (inactive) |
| COc1ccc(C2C(C#N)=C(S)N(C3OC(CO)C(O)C(O)C3O)C(C)=C2C(C)=O)cc1 (stereo unspecified) | 62.1 µM (inactive) | 30.5 µM (inactive) | > 100 µM (inactive) | > 100 µM (inactive) | 92 µM (inactive) | > 100 µM | > 100 µM (inactive) | > 100 µM (inactive) |  | > 100 µM (inactive) | > 100 µM (inactive) | > 100 µM (inactive) | > 100 µM (inactive) | 40.8 µM (inactive) | > 100 µM (inactive) | > 100 µM (inactive) | > 100 µM (inactive) | 73.1 µM (inactive) | 58.7 µM (inactive) |  |
| Cc1cc2ccccc2n1CC(=O)N1CCCC1 | > 100 µM (inactive) | > 100 µM (inactive) | > 100 µM (inactive) | > 100 µM (inactive) | > 100 µM (inactive) | > 100 µM | > 100 µM (inactive) | > 100 µM (inactive) |  | > 100 µM (inactive) | > 100 µM (inactive) | > 100 µM (inactive) | > 100 µM (inactive) | > 100 µM (inactive) | > 100 µM (inactive) | > 100 µM (inactive) | > 100 µM (inactive) | > 100 µM (inactive) | > 100 µM (inactive) | > 100 µM (inactive) |
| CCN(CCN(CC)C(=O)NC)C(=O)NC | > 100 µM (inactive) | > 100 µM (inactive) | > 100 µM (inactive) | > 100 µM (inactive) | > 100 µM (inactive) | > 100 µM | > 100 µM (inactive) | > 100 µM (inactive) |  | > 100 µM (inactive) | > 100 µM (inactive) | > 100 µM (inactive) | > 100 µM (inactive) | > 100 µM (inactive) | > 100 µM (inactive) |  | > 100 µM (inactive) | > 100 µM (inactive) | > 100 µM (inactive) | > 100 µM (inactive) |
| O=C(Nn1c(-c2ccccc2)nc2ccccc2c1=O)c1ccccc1O | 51.5 µM (inactive) | 42.3 µM (inactive) | 37.2 µM (inactive) | 45.6 µM (inactive) | 38.6 µM (inactive) | 29.4 µM | 39.3 µM (inactive) | 41.8 µM (inactive) |  | 33.5 µM (inactive) | > 100 µM (inactive) | 28.1 µM (inactive) | 76.9 µM (inactive) | 24 µM (inactive) | 37.8 µM (inactive) | 33.7 µM (inactive) | 70.1 µM (inactive) | 28.9 µM (inactive) | 27.8 µM (inactive) | > 100 µM (inactive) |
| C#CCSC(C=C=C)P(=O)(OC(C)C)OC(C)C (stereo unspecified) | 30.3 µM (inactive) | > 100 µM (inactive) | 32.4 µM (inactive) | > 100 µM (inactive) | 26.4 µM (inactive) | 30.5 µM | > 100 µM (inactive) | > 100 µM (inactive) | > 100 µM (inactive) | 27 µM (inactive) | 12.9 µM (inactive) | 33.7 µM (inactive) | > 100 µM (inactive) | 21.5 µM (inactive) | 42.8 µM (inactive) |  | 28.4 µM (inactive) | > 100 µM (inactive) | 38.1 µM (inactive) | > 100 µM (inactive) |
| CC1(c2nc3ccccc3[nH]2)CCC(C(N)=O)C(C)(C)O1 (stereo unspecified) | > 100 µM (inactive) | > 100 µM (inactive) | > 100 µM (inactive) | > 100 µM (inactive) | > 100 µM (inactive) | > 100 µM | > 100 µM (inactive) |  | > 100 µM (inactive) | > 100 µM (inactive) | > 100 µM (inactive) | > 100 µM (inactive) | > 100 µM (inactive) | > 100 µM (inactive) | > 100 µM (inactive) | > 100 µM (inactive) | > 100 µM (inactive) | > 100 µM (inactive) | > 100 µM (inactive) | > 100 µM (inactive) |
| CCCCC/C=C\C=C1\C(=O)C=C[C@@H]1C/C=C\CCCC(=O)O | 1.38 µM (inactive) | 9.35 µM (inactive) | 2 µM (inactive) | 7.29 µM (inactive) | 2.05 µM (inactive) | 5.24 µM | 6.65 µM (inactive) | 6.04 µM (inactive) | 3.37 µM (inactive) | 1.23 µM (inactive) | 2.47 µM (inactive) | 4.09 µM (inactive) | 2.89 µM (inactive) | 2.25 µM (inactive) | 2.72 µM (inactive) | 5.82 µM (inactive) |  | 1.84 µM (inactive) | 2.41 µM (inactive) | 1.9 µM (inactive) |
